Literature values, collected in patent US20160220687A1, “METALLOPROTEINASE-CLEAVABLE ALPHA-AMANITIN-DENDRIMER CONJUGATES AND METHOD OF TREATING CANCER” (priority 2015, published 2016).

Experiments:
[1] = system: advanced gastric cancer; settings: patients with advanced gastric cancer, compared to placebo
[2] = system: MCF7 breast cancer cells
[3] = system: B16F10 melanoma cells; settings: mice injected with B16F10 melanoma cells
[4] = system: liver and kidney; settings: intravenous or intraperitoneal administration

Molecule: CNC(=O)[C@@H](NC(=O)[C@H](CC(C)C)[C@H](O)C(=O)NO)C(C)(C)C [Marimastat]
- disease free survival [1]: significant improvement
- overall survival [1]: significant improvement

Molecule: N#Cc1ccc(C(c2ccc(C#N)cc2)n2cncn2)cc1 [Letrozole]
- MMP2 and MMP9 levels [2]: efficient reduction

Molecule: TIMP1: an inhibitor of MMP9
- number of pulmonary metastases [3]: reduced

Molecule: CC[C@H](C)[C@@H]1NC(=O)CNC(=O)[C@@H]2Cc3c([nH]c4cc(O)ccc34)[S@+]([O-])C[C@H](NC(=O)CNC1=O)C(=O)N[C@@H](CC(N)=O)C(=O)N1C[C@H](O)C[C@H]1C(=O)N[C@@H]([C@@H](C)[C@@H](O)CO)C(=O)N2 [alpha-amanitin]
- pathological effects on the liver and kidney [4]: serious pathological effects on the liver and kidney
